In patent US20060241082A1, “Modulating vesicular monoamine transporter trafficking and function: a novel approach for the treatment of parkinson's disease” (priority 2002, published 2006):
Where a name gives a salt, the structure may show the parent alone.

Experiments:
[1] = biological target: T1, DAT (Rattus norvegicus, UniProt P23977); test: In vitro preincubation of striatal synaptosomes with MDMA: [3H]DA uptake and WIN35428 binding; format: biochemical; conditions: 10 μM inhibitor 5 min, then 10 μM MDMA 30 min at 37° C.
T1 construct: from tissue; host or cells: striatum of male Sprague-Dawley rats (synaptosomes, P2)
T1 sequence (P23977 whole entry): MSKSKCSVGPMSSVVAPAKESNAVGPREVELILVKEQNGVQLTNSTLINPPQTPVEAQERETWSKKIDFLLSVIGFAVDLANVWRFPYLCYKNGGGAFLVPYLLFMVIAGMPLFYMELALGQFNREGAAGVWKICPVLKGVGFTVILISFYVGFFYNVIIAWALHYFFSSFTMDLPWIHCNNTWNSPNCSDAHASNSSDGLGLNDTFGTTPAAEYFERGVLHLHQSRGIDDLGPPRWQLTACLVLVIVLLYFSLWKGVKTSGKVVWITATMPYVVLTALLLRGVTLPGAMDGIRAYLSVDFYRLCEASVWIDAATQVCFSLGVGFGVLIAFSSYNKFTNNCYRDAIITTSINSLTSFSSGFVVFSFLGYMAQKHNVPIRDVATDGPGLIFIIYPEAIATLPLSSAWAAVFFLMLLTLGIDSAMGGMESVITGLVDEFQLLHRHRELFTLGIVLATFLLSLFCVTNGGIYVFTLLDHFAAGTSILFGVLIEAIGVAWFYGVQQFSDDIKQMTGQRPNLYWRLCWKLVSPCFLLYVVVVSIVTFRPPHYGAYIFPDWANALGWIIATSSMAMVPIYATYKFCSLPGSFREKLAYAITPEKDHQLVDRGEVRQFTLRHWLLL
Description: (§1) Uptake of [^3H]DA was determined in striatal synaptosomes prepared according to the method described by Kokoshka et al. (1998). Briefly, fresh striatal tissue was homogenized in cold 0.32 M sucrose and centrifuged (800×g for 12 min; 4° C.). The supernatant (S1) was then centrifuged (22,000×g for 15 min; 4° C.), and the resulting pellet (P2) was resuspended in ice-cold modified Kreb's buffer (in mM: 126 NaCl, 4.8 KCl, 1.3 CaCl2, 16 sodium phosphate, 1.4 MgSO4, 11 dextrose, 1-ascorbic acid, pH 7.4). Assays were conducted in Kreb's buffer. Each assay tube contained synaptosomal tissue (i.e., resuspended P2 obtained from 1.5 mg of original wet weight striatal tissue) and 1 μM pargyline. Nonspecific values were determined in the presence of 100 μM cocaine. After preincubation of assay tubes for 10 min at 37° C., assays were initiated by the addition of [^3H]DA (0.5 nM final concentration). Samples were incubated at 37° C. for 3 min. Samples were then filtered through Whatman GF/B filters (Brandel, Gaithersburg, Md.) soaked previously in 0.05% polyethylenimine. Filters were washed rapidly 3 times with 3 ml of ice-cold 0.32 M sucrose using a Brandel filtering manifold. […] Remaining resuspended P2 samples were assayed for protein concentrations according to the method of Lowry et al. (1951). In MDMA preincubation experiments, samples were preincubated with 10 μM MDMA for 30 min at 37° C. After 30 min, resuspended P2 fractions were “washed” by centrifugation (22,000×g for 15 min; 4° C.). The resulting pellet (P3) was then resuspeded in ice-cold Kreb's buffer, and once again centrifuged (22,000×g for 15 min; 4° C.) to obtain a P4 pellet that was subsequently resuspended and assayed. [^3H]WIN35428 binding (0.5 nM final concentration) was conducted in phosphate-buffered 0.32 M sucrose, pH 7.4, with synaptosomes obtained from 2 mg (original wet weight) of striatal tissue per reaction tube, and samples were incubated on ice for 2 hr. Samples were then filtered through Whatman GF/B filters (Brandel, Gaithersburg, Md.) soaked previously in 0.05% polyethylenimine. Filters were washed rapidly 3 times with 3 ml of ice-cold 0.32 M sucrose using a Brandel filtering manifold. […] Remaining resuspended P2 samples were assayed for protein concentrations according to the method of Lowry et al. (1951).

[2] = system: VMAT-2; test: VMAT-2 immunoreactivity in striatal subcellular fractions (P2, P3, S3) of treated rats (Western blot); format: in vivo, rat; conditions: 1 h
Description: Striatal synaptosomes were prepared from rats decapitated 1 h after treatment as previously described (Fleckenstein et al., 1997). Briefly, striatal tissue was homogenized in cold 0.32 M sucrose and centrifuged (800×g for 12 min; 4° C.). The supernatant (S1) was then centrifuged (22,000×g for 15 min; 4° C.) and the resulting pellet (P2, synaptosomal fraction) was resuspended at 50 mg original wet weight/ml in cold water and a portion saved for western blot analysis. The remainder of the synaptosomal sample was centrifuged for 20 min at 22,000×g (4° C.) to pellet lysed synaptosomal membranes (P3, synaptosomal membrane fraction), which were then resuspended at 50 mg original wet weight/ml and saved for western blot analysis. Prior to resuspension of the plasmalemmal membrane fraction the supernatant (S3, vesicle-enriched fraction) was removed and saved for western blot analysis.
Binding of VMAT-2 antibody was performed using 60 μl aliquots of synaptosomal (P2), synaptosomal membrane (P3), or vesicle-enriched (S3) preparations. Each aliquot was added to 20 μl of loading buffer (final concentration: 2.25% sodium dodecyl sulfate, 18% glycerol, 180 mM Tris base (pH 6.8), 10% β-mercapto-ethanol and bromophenol blue), boiled for 10 min, and loaded on a 10% sodium dodecyl sulfate-polyacrylamide gel. Following electrophoresis, samples were transferred to polyvinlylidene difluoride membrane, blocked with 5% nonfat dry milk in Tris-buffered saline with tween (250 mM NaCl, 50 mM Tris pH 7.4 and 0.05% Tween 20), and probed with the VMAT-2 antibody (provided by J.W.H.). Bound antibody was visualized with HRP-conjugated goat anti-rabbit antibody, and antigen-antibody complexes were visualized by chemiluminescence. Multiple exposures of blots were obtained to ensure development within the linear range of the film. Bands on blots were quantified by densitometry using Kodak 1D image-analysis software.
Fresh striatal tissue was homogenized in ice-cold 0.32 M sucrose and centrifuged (800×g for 12 min; 4° C.). […] Resuspended tissue was aliquoted into two test tubes. One aliquot was centrifuged (22,000×g for 10 min; 4° C.) to separate plasmalemmal membranes from the synaptic vesicle-enriched fraction. The resulting supernatant (S3) contained the vesicular subcellular fraction of interest, and the pellets (P3; plasmalemmal membrane fraction) were resuspended in cold distilled deionized water.
VMAT-2 antibody was purchased from Chemicon (Temecula, Calif.; AB1767). Binding of VMAT-2 antibody was performed using 60 μl of whole synaptosomal, plasmalemmal membrane or vesicle subcellular fractions. Samples were added to 20 μl of loading buffer (final concentration: 2.25% SDS, 18% glycerol, 180 mM Tris Base (pH 6.8), 10% […] and bromophenol blue). Approximately 60 μg protein of the whole synaptosomal fraction, 40 μg protein of the plasmalemmal membrane fraction or 20 μg protein of the vesicle subcellular fraction was loaded per well in a 10% SDS-polyacrylamide gel. Following electrophoresis, samples were transferred to polyvinylidene difluoride hybridization transfer membrane (New England Nuclear (NEN), Boston, Mass.). All subsequent incubation steps were performed at room temperature while shaking. Each membrane was first blocked for 2 h in 100 ml of tris buffer saline with tween (TBST; 250 mM NaCl, 50 mM tris pH 7.4 and 0.05% tween 20) containing 5% nonfat dry milk. Each membrane was then incubated with anti-VMAT-2 antibody (1:4000 dilution) in 13 ml of TBST with 5% milk for 1 h and then washed 5 times (2×1 min wash; 3×5 min wash) in 70 ml TBST with 5% milk.

[3] = biological target: T1, DAT; test: [3H]WIN35428 binding in striatal synaptosomes prepared from treated rats; format: in vivo; conditions: αMT 150 mg/kg i.p., MDMA 4 x 10 mg/kg s.c.
Description: as §1

[4] = Striatal tissue DA content of treated rats (HPLC); format: in vivo, rat
Description: On the day of the assay, frozen tissue samples were thawed, sonicated for 3-5 s in tissue buffer (0.05 M sodium phosphate/0.03 M citric acid buffer with 15% methanol (v/v); pH 2.78), and centrifuged for 15 min at 22,000×g. Tissue pellets were retained and protein determined according to the method of Lowry et al. (1951). The supernatant was centrifuged a second time for 15 min at 22,000×g. 20 μl of supernatant were injected onto a high performance liquid chromatograph system coupled to an electrochemical detector (+0.73 V) for separation and quantitation of dopamine levels using the method of Chapin et al. (1986).

[5] = biological target: T2, plasmalemmal DA transporter (DAT) (Rattus norvegicus, UniProt P23977); test: Plasmalemmal [3H]DA uptake in striatal synaptosomes prepared from treated rats; format: in vivo; conditions: αMT 150 mg/kg i.p. 5 and 1 h prior to and 3 h after first MDMA injection, MDMA 4 x 10 mg/kg s.c.
T2 construct: from tissue; host or cells: striatum of male Sprague-Dawley rats (synaptosomes, P2)
T2 sequence (P23977 whole entry): as above
Description: Uptake of [^3H]DA was determined in striatal synaptosomes prepared according to the method described by Kokoshka et al. (1998). Briefly, fresh striatal tissue was homogenized in cold 0.32 M sucrose and centrifuged (800×g for 12 min; 4° C.). The supernatant (S1) was then centrifuged (22,000×g for 15 min; 4° C.), and the resulting pellet (P2) was resuspended in ice-cold modified Kreb's buffer (in mM: 126 NaCl, 4.8 KCl, 1.3 CaCl2, 16 sodium phosphate, 1.4 MgSO4, 11 dextrose, 1-ascorbic acid, pH 7.4). Assays were conducted in Kreb's buffer. Each assay tube contained synaptosomal tissue (i.e., resuspended P2 obtained from 1.5 mg of original wet weight striatal tissue) and 1 μM pargyline. Nonspecific values were determined in the presence of 100 μM cocaine. After preincubation of assay tubes for 10 min at 37° C., assays were initiated by the addition of [^3H]DA (0.5 nM final concentration). Samples were incubated at 37° C. for 3 min. Samples were then filtered through Whatman GF/B filters (Brandel, Gaithersburg, Md.) soaked previously in 0.05% polyethylenimine. Filters were washed rapidly 3 times with 3 ml of ice-cold 0.32 M sucrose using a Brandel filtering manifold. […] Remaining resuspended P2 samples were assayed for protein concentrations according to the method of Lowry et al. (1951). In MDMA preincubation experiments, samples were preincubated with 10 μM MDMA for 30 min at 37° C. After 30 min, resuspended P2 fractions were “washed” by centrifugation (22,000×g for 15 min; 4° C.). The resulting pellet (P3) was then resuspeded in ice-cold Kreb's buffer, and once again centrifuged (22,000×g for 15 min; 4° C.) to obtain a P4 pellet that was subsequently resuspended and assayed. [^3H]WIN35428 binding (0.5 nM final concentration) was conducted in phosphate-buffered 0.32 M sucrose, pH 7.4, with synaptosomes obtained from 2 mg (original wet weight) of striatal tissue per reaction tube, and samples were incubated on ice for 2 hr. Samples were then filtered through Whatman GF/B filters (Brandel, Gaithersburg, Md.) soaked previously in 0.05% polyethylenimine. […]

[6] = biological target: T3, VMAT-2 (Rattus norvegicus, UniProt Q01827); test: [3H]DHTBZ binding in purified striatal vesicles prepared from treated rats; conditions: rats
T3 sequence (Q01827 whole entry): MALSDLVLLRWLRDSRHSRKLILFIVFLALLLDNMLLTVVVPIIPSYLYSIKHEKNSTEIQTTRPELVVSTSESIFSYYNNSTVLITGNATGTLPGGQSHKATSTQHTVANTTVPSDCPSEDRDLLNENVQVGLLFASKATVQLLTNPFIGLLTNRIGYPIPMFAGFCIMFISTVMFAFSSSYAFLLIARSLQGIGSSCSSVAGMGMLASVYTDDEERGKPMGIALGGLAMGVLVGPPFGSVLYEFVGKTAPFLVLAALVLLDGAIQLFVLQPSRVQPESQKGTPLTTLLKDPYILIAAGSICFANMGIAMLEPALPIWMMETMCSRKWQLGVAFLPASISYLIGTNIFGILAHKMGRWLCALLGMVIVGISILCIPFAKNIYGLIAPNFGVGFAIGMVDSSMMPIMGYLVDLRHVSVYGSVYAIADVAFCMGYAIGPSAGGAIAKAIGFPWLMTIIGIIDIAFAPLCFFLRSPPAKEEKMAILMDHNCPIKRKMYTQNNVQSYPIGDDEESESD
Description: Synaptic vesicles were obtained from synaptosomes prepared from rat striatum as described above. Synaptosomes were resuspended and homogenized in cold distilled deionized water. Osmolarity was restored by addition of HEPES and potassium tartrate 245 and 100 mM (final concentrations; pH 7.5), respectively. Samples were centrifuged for 20 min at 20,000×g (4° C.) to remove lysed synaptosomal membranes. MgSO4 (1 mM, final concentration) was added to the supernatant, which was then centrifuged for 45 min at 100,000×g (4° C.). The resulting vesicular pellet was resuspended in wash buffer at a concentration of 50 mg/ml (original tissue weight). […] Binding of [^3H]DHTBZ was performed as described by Teng et al. (1998). Briefly, 200 μl of the synaptic vesicle preparation (˜6 μg of protein) was incubated in wash buffer in the presence of [^3H]DHTBZ (2 nM final concentration) for 10 min at 25° C. The reaction was terminated by addition of 1 ml of cold wash buffer and rapid filtration through Whatman GF/F filters soaked in 0.5% polyethylenimine. Filters were washed three times with ice-cold wash buffer. Nonspecific binding was determined by coincubation with 20 μM tetrabenazine. All protein concentrations were determined by a BioRad protein assay (Bio-Rad, Richmond, Calif.).
Binding of [^3H]DHTBZ was performed as described by Teng et al. (1998). Briefly, 200 μl (˜6 μg protein) of the synaptic vesicle preparation was incubated in wash buffer in the presence of [^3H]DHTBZ (2 nM final concentration except in kinetic analyses wherein 0.25-500 nM DHTBZ was employed) for 10 m in at 25° C. The reaction was terminated by addition of 1 ml cold wash buffer and rapid filtration through Whatman GF/F filters soaked in 0.5% polyethylenimine. Filters were washed three times with ice-cold wash buffer. Radioactivity trapped in filters was counted using a liquid scintillation counter. Nonspecific binding was determined by coincubation with 20 μM TBZ. All protein concentrations were determined by a Bio-Rad protein assay (Bio-Rad Inc.).
Binding of[^3H]DHTBZ was performed as described by Teng et al. (1998). Briefly, 200 μl (˜5 μg protein) of the synaptic vesicle preparation was incubated in wash buffer in the presence of [^3H]DHTBZ (2 nM final concentration except in kinetic analyses wherein 0.25-500 nM DHTBZ was employed) for 10 m in at 25° C. The reaction was terminated by addition of 1 ml cold wash buffer and rapid filtration through Whatman GF/F filters soaked in 0.5% polyethylenimine. Filters were washed three times with ice-cold wash buffer. Radioactivity trapped in filters was counted using a liquid scintillation counter. Nonspecific binding was determined by coincubation with 20 μM TBZ. All protein concentrations were determined by a Bio-Rad protein assay (Bio-Rad Inc.).

[7] = biological target: VMAT-2 (Mus musculus, UniProt Q8BRU6); test: Vesicular [3H]dopamine uptake in striatal vesicles prepared from treated mice; format: in vivo; conditions: antagonist 2 mg/kg i.p. prior to each methamphetamine injection (4 x 10 mg/kg s.c.), 1 h
Sequence of VMAT-2 (Mus musculus, UniProt Q8BRU6) (Q8BRU6 whole entry): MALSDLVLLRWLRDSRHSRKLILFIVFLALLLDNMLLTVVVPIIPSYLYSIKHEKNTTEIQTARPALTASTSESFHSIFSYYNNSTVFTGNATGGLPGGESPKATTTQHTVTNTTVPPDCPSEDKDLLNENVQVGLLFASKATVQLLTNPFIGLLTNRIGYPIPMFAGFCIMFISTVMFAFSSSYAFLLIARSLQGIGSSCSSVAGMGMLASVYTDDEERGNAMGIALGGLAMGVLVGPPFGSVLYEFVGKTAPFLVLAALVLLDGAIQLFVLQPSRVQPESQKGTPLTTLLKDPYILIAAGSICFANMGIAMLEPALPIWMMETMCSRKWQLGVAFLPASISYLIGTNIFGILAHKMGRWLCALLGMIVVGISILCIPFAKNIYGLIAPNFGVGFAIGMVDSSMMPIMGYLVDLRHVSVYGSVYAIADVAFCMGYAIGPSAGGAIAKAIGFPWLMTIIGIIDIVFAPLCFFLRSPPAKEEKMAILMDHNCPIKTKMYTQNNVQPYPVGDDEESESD
Description: (A. E. Fleckenstein, et al., J. Pharmacol Exp Ther. (1997) 282:834-838). Briefly, fresh tissue was homogenized in ice-cold 0.32 M sucrose. The homogenate was centrifuged (800×g for 12 min; 4° C.), and the supernatant (S1) was carefully removed and centrifuged (22,000×g for 15 min; 4° C.) to obtain the synaptosomal-containing pellet (P2). The resulting P2 were resuspended and homogenized in ice-cold distilled deionized water. Osmolarity was restore by addition 25 mM HEPES and 100 mM potassium tartrate (final concentration; pH 7.5 at 4° C. respectively). […] The resultant S3 removed and MgSO4 added (final concentration of [1 mM] pH 7.5 at 4° C.) and centrifuged at 100,000×g for 45 min. The final P4 were resuspended at 50 mg/ml (original tissue wet weight).

[8] = biological target: T3, VMAT-2; format: in vivo; set-up: purified striatal vesicles prepared from treated rats; from tissue; host or cells: striatum of male Sprague-Dawley rats (synaptic vesicles; P2, P3, S3 fractions)
Description: Osmolarity was restored by addition of N-(2-hydroxyethyl)-piperazine-N′-2-ethanesulfonic acid (HEPES) and potassium tartrate 25 mM and 100 mM (final concentrations; pH 7.5 at 4° C.), respectively.

[9] = Vesicular DA content in purified striatal vesicles of treated rats; format: in vivo, rat; conditions: rats, reserpine 10 mg/kg i.p. 6 and 1 h before decapitation
Description: Purified striatal vesicles were prepared as described above. The resulting vesicular pellet was sonicated for approximately 5 sec in cold tissue buffer (0.05 M sodium phosphate/0.03 M citric acid buffer with 15% methanol (v/v); pH 2.5) at a concentration of 100 mg/ml (original wet weight of tissue), and centrifuged for 15 min at 22,000×g. Tissue pellets were retained and protein was determined according to the method of Lowry et al. (1951). 40 μl of supernatant was injected onto a high performance liquid chromatograph system coupled to an electrochemical detector (+0.73 V) for separation and quantitation of DA levels using the method of Chapin et al. (1986).

CC(=O)O.Cn1cc(C2=C(c3cn(CCCN)c4ccccc34)C(=O)NC2=O)c2ccccc21 [Ro31-7549, 2-[1-3(Aminopropyl)indol-3-yl]-3(1-methylindol-3-yl)maleimide, acetate]
effect of PKC inhibitor pretreatment on the MDMA-induced deficit in vitro [1]: attenuated

COC(=O)[C@H]1[C@@H](OC(=O)c2ccccc2)C[C@@H]2CC[C@H]1N2C [cocaine, (−)cocaine hydrochloride]
decrease in VMAT-2 immunoreactivity in the P3 (synaptosomal membrane) fraction ([2]; cocaine 30 mg/kg i.p. single): 33% | increase in VMAT-2 immunoreactivity in the S3 (vesicle-enriched) fraction ([2]; cocaine 30 mg/kg i.p. single): 80%

CCCCCCCCCCCCC(=O)N1CCCCC1CNC(=O)[C@@H](N)CCCCN.Cl.Cl (some centres unmarked) [NPC15437]
effect of PKC inhibitor pretreatment on the MDMA-induced deficit in vitro [1]: attenuated

CC(N)(Cc1ccc(O)cc1)C(=O)O.Cl (stereo not drawn) [αMT, α-methyl-p-tyrosine hydrochloride]
effect of αMT pretreatment on the MDMA-induced deficit in WIN35428 binding [3]: did not prevent | striatal DA levels ([4]; αMT-treated rats, 150 mg/kg i.p.): 10.1±2.0 pg/1 μg protein | effect of αMT pretreatment on the MDMA-induced decrease in DAT activity [5]: did not affect

CCc1cc(Cl)c(OC)c(C(=O)NC[C@@H]2CCCN2CC)c1O [eticlopride, (−)-Eticlopride hydrochloride]
[3H]DHTBZ binding after antagonist per se ([6]; antagonist 0.5 mg/kg i.p.): did not affect | effect of antagonist pretreatment on the MPD-induced increase in [3H]DHTBZ binding ([6]; antagonist 0.5 mg/kg i.p. 15 min prior to MPD 40 mg/kg s.c., 1 h): completely prevented | effect of antagonist pretreatment on the methamphetamine-induced decrease in vesicular dopamine uptake [7]: attenuated | effect of antagonist pretreatment on the MPD-induced increase in VMAT-2 immunoreactivity in the vesicular subcellular fraction ([2]; antagonist 0.5 mg/kg i.p. 15 min prior to MPD 40 mg/kg s.c.): completely prevented | effect of antagonist pretreatment on the METH-induced decrease in vesicular [3H]DA uptake ([8]; rat, in vivo): attenuated | effect of eticlopride on the MDMA-induced decrease in vesicular DA uptake ([8]; rat, in vivo): attenuated | vesicular [3H]DA uptake after antagonist per se ([8]; rats, antagonist 0.5 mg/kg i.p.): did not affect | effect of antagonist pretreatment on the MPD-induced increase in vesicular [3H]DA uptake ([8]; rats, antagonist 0.5 mg/kg i.p. 15 min prior to MPD 40 mg/kg s.c., 1 h): attenuated

COC(=O)[C@H]1[C@H]2C[C@@H]3c4[nH]c5cc(OC)ccc5c4CCN3C[C@H]2C[C@@H](OC(=O)c2cc(OC)c(OC)c(OC)c2)[C@@H]1OC [reserpine]
striatal vesicular DA levels [9]: below the detection limit | depletion in total striatal tissue DA levels ([4]; rats, reserpine 10 mg/kg i.p. 6 and 1 h before decapitation): > 98%
